Assay results published in ChEMBL document CHEMBL1201862, “PubChem BioAssay data set” (2004).
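Exposure lasted 48 hours, with cells grown in 96-well plates and compounds tested at five concentrations. Abbreviation: GI50, concentration required for 50% inhibition of growth.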 Activity calls are given as the source filed them. Rule as the data show it: active = GI50 up to about 1.1 µM and inactive = higher.

Experiments:
Test in all cases: NCI-60 cell line screen, 48 h
[1] = test system: KM12
[2] = test system: HCT-116
[3] = test system: MDA-MB-231
[4] = test system: RXF 393
[5] = test system: MCF7
[6] = test system: ACHN
[7] = test system: SK-OV-3
[8] = test system: IGROV-1
[9] = test system: SW-620
[10] = test system: U-251
[11] = test system: MDA-MB-435
[12] = test system: SK-MEL-28
[13] = test system: MDA-N
[14] = test system: SF-539
[15] = test system: UACC-62
[16] = test system: NCI-H226
[17] = test system: OVCAR-5
[18] = test system: DU-145
[19] = test system: CCRF-CEM

Row | SMILES | GI50 [1] | GI50 [2] | GI50 [3] | GI50 [4] | GI50 [5] | GI50 [6] | GI50 [7] | GI50 [8] | GI50 [9] | GI50 [10] | GI50 [11] | GI50 [12] | GI50 [13] | GI50 [14] | GI50 [15] | GI50 [16] | GI50 [17] | GI50 [18] | GI50 [19]
1 | c1ccc(CNCCN2CCNCC2)nc1 | > 100 µM (inactive) | > 100 µM (inactive) | > 100 µM (inactive) | > 100 µM (inactive) | > 100 µM (inactive) | > 100 µM (inactive) | > 100 µM (inactive) | > 100 µM (inactive) | > 100 µM (inactive) | > 100 µM (inactive) | > 100 µM (inactive) | > 100 µM (inactive) | > 100 µM (inactive) | > 100 µM (inactive) | > 100 µM (inactive) | > 100 µM (inactive) | > 100 µM (inactive) |  | 
2 | CC(C)CCc1c(Cl)nc(Cl)nc1Cl | > 10 µM (inactive) | 2.48 µM (inactive) |  | 3.89 µM (inactive) | 13.8 µM (inactive) | 21.2 µM (inactive) | 17 µM (inactive) | 18 µM (inactive) | 1.4 µM (inactive) | 11.8 µM (inactive) | 6.18 µM (inactive) | 9.04 µM (inactive) | 3.98 µM (inactive) | 24.8 µM (inactive) | 12 µM (inactive) | 4.44 µM (inactive) | 28.1 µM (inactive) | 17.3 µM (inactive) | 0.33 µM (active)
3 | CCOC(=O)c1c(C)n(Cc2ccccc2)c2c1cc(O)c1[nH]c3c(c12)CCCC3 | 3.17 µM (inactive) | 6.1 µM (inactive) | 5.35 µM (inactive) |  | 2.36 µM (inactive) | 11.3 µM (inactive) | 10.3 µM (inactive) | 3.44 µM (inactive) | 3.65 µM (inactive) | 1.81 µM (inactive) | 11.9 µM (inactive) | 5.18 µM (inactive) | 13.6 µM (inactive) | 1.95 µM (inactive) | 1.9 µM (inactive) |  | 7.08 µM (inactive) | 12.6 µM (inactive) | 2.37 µM (inactive)
4 | Cc1nn(C(=O)Cc2ccccc2)c2c1C(c1ccc(N(C)C)cc1)SC(=N)N2 (stereo unspecified) | > 100 µM (inactive) | > 100 µM (inactive) | > 100 µM (inactive) |  | > 100 µM (inactive) | > 100 µM (inactive) | > 100 µM (inactive) | > 100 µM (inactive) | > 100 µM (inactive) |  | > 100 µM (inactive) | > 100 µM (inactive) | > 100 µM (inactive) | 46.1 µM (inactive) | 45.6 µM (inactive) | > 100 µM (inactive) |  | > 100 µM (inactive) | > 100 µM (inactive)
5 | CCOc1cc(NC(C)=O)ccc1C(=O)NN1C(=O)/C(=C/c2ccco2)N=C1c1ccccc1 | > 100 µM (inactive) | > 100 µM (inactive) |  | > 100 µM (inactive) | > 100 µM (inactive) | > 100 µM (inactive) | > 100 µM (inactive) | > 100 µM (inactive) | > 100 µM (inactive) |  | > 100 µM (inactive) | > 100 µM (inactive) | > 100 µM (inactive) | > 100 µM (inactive) | > 100 µM (inactive) | > 100 µM (inactive) | > 100 µM (inactive) | > 100 µM (inactive) | > 100 µM (inactive)
6 | CCc1nc2ccc(/N=N/N(C)C)cc2[nH]1 | > 100 µM (inactive) | > 100 µM (inactive) | > 100 µM (inactive) | 45.3 µM (inactive) |  | > 100 µM (inactive) |  | > 100 µM (inactive) | > 100 µM (inactive) | > 100 µM (inactive) | > 100 µM (inactive) | > 100 µM (inactive) | > 100 µM (inactive) |  | > 100 µM (inactive) | > 100 µM (inactive) | > 100 µM (inactive) | > 100 µM (inactive) | > 100 µM (inactive)
